The source of these data is patent US9695396B2, “Regenerated tissue comprising a stratified structure of epithelial cells” (JAPAN SCIENCE AND TECHNOLOGY CORPORATION, priority 2001, dated 2017).

The test system of series [1] is regenerated normal bronchial epithelial tissue (NHBE). Put plainly: cancer therapy sensitivity test by MTT assay, regenerated normal tissue, lung-derived fibroblasts (NHLF) as feeder layer. Conditions: 10 μg/ml for 72 hours. The series is classed as cell-based, human. How it is done:
(§1) The cancer therapy sensitivity test was conducted in comparison with a conventional two-dimensional culture MTT assay system.
(§2) In these figures, a column of the cancer name (e.g: AOI) corresponds to the sensitivity of the cancer cells in the two-dimensional culture.
(§3) Also in these figures, the brackets the MTT assay correspond, from the left, the normal epithelial cell name employed (this time a bronchial epithelium (NHBE) or prostatic epithelium (PrEC)), the culture medium (1/10-fold or 1-fold), the fibroblast name employed as a feeder layer (human skin-derived (SUSA) or lung-derived (NHLF)). […] The drug treatments with all of three drugs employed here were conducted at 10 μg/ml for 72 hours.

In series [2] the test system is prostatic cancer-derived DU-145 cancer cells. Put plainly: cancer therapy sensitivity test by MTT assay, DU-145 on PrEC in stratified structure, SuSa feeder layer (Embodiment 3). The format is cell-based, human. The settings on record: 1/10-fold culture medium, 10 μg/ml for 72 hours. In general terms: Formazan colour is commonly taken as a measure of viable cells.
Series [3] concerns regenerated normal bronchial epithelial tissue (NHBE). Put plainly: cancer therapy sensitivity test by MTT assay, regenerated normal tissue, SuSa feeder layer (Embodiment 3). Conditions: 10 μg/ml for 72 hours. How it is done: as §1, §2, §3
The test system of a further series is AOI cancer tissue. Put plainly: cancer therapy sensitivity test by MTT assay, AOI on NHBE, lung-derived fibroblasts (NHLF) as feeder layer. The settings on record: 10 μg/ml for 72 hours. The format is cell-based, human.
The test system of a further series is AOI lung cancer cells. Put plainly: cancer therapy sensitivity test by MTT assay, AOI on NHBE in stratified structure, SuSa feeder layer (Embodiment 3). The series is classed as cell-based, human. Conditions: 10 μg/ml for 72 hours. How it is done: as §1, §2, §3
In a further series the test system is AOI tumor. Put plainly: AOI tumor transplanted to a nude mouse. The series is classed as in vivo.
A further series concerns hepatoma cells Alex. Put plainly: cancer therapy sensitivity test by MTT assay on regenerated tissue (Embodiment 2), hepatoma. The format is cell-based, human. The settings on record: combination of irradiation with cisplatin; Alex on Nheps regenerated tissue.
A further series has as its system ACHN-L4 cells. Put plainly: cancer therapy sensitivity test by MTT assay on regenerated tissue (Embodiment 2), renal cancer. The series is classed as cell-based, human. The settings on record: novel sensitivity test, ACHN-L4 on RPTEC/NHMC regenerated tissue.
[4] abbreviates: 1-fold culture medium, lung-derived fibroblast feeder.
[5] abbreviates: 1/10-fold culture medium, lung-derived fibroblasts as feeder.

Turning to `O=c1[nH]cc(F)c(=O)[nH]1` [5FU], the “sensitivity of the normal tissue in 3-dimensional culture” value in series [1] (setting [4]) is “reduced sensitivity”. Further, the “sensitivity of tissue in MTT assay” value (in series [1] (setting [5]); in the series with AOI cancer tissue (setting [5])) was “no tissue exhibited any sensitivity” each time. Moreover, the “sensitivity of DU-145 cancer cells compared with the AOI cells” value in series [2] is “highly sensitive”. The “proliferation of regenerated normal tissue” value in series [3] (1-fold culture medium, 5FU alone) was “proliferation was rather promoted”. The “growth of the regenerated normal bronchial epithelial tissue after removing co-cultured AOI cancer tissue” value in series [3] (1/10-fold culture medium) is recorded as “tendency of the promotion of the growth”. For the same molecule, in the series on AOI cancer tissue (setting [4]), the “sensitivity of the AOI cancer cell tissue in 3-dimensional culture” value is reported as “reduced sensitivity”.
For `CO[C@@]12[C@H](COC(N)=O)C3=C(C(=O)C(C)=C(N)C3=O)N1C[C@@H]1N[C@@H]12` [MMC, mitomycin], in series [3] (1-fold level culture medium, drug alone), the “resistance of 3-dimensionally growing normal tissue” value is reported as “rather more resistant”. Moreover, the “resistance of 3-dimensional normal tissue coexisting with the cancer tissue compared with the normal tissue alone” value in series [3] (1/10-level medium, drug alone) is “rather more resistant”. The “resistance of 3-dimensional AOI cancer tissue coexisting with the normal tissue compared with 2-dimensionally cultured AOI cells” value in the series with AOI lung cancer cells (1/10-level medium, drug alone) was “more resistant”. The “difference in sensitivity between the skin-derived and lung-derived fibroblasts” value with AOI cancer tissue (1/10-fold culture medium) was “no substantial difference”. In the series with AOI tumor (nude mouse-transplanted tumor), the “sensitivity of AOI tumor to mitomycin compared with cisplatin” value is recorded as “rather more sensitive”.
As for `N.N.[Cl][Pt][Cl]` [cisplatin], in the series on hepatoma cells Alex, the “MTT assay result compared with the HDRA method” value is “exhibited the difference in the effect”. Besides, the “sensitivity of DU-145 cancer cells compared with the AOI cells” value in series [2] was “rather resistant”. In the series on AOI lung cancer cells (degree influenced by growth factor level in medium), the “tendency of 3-dimensional tissue to be more resistant than two-dimensional culture” value is reported as “tendency described above was observed also”. For the same molecule, the “difference in the sensitivity of the AOI cancer tissue by the difference in the fibroblasts” value in the series on AOI cancer tissue (1-fold culture medium, lung-derived vs skin-derived fibroblast feeder) was “small”. Further, the “sensitivity of cancer cells in the MTT assay” value with ACHN-L4 cells is “highly sensitive”. For the same molecule, the “body weight of the nude mouse reduced to (fraction)” value with AOI tumor (cisplatin at 10 mg/kg) is “about ⅔”. The tumor growth entry in the series on AOI tumor (cisplatin at 10 mg/kg, nude mouse) was “retarded growth was observed only for several days”.
